Source: US12171866B2, “Lipid emulsion for parenteral nutrition comprising GPC” (BAXTER INTERNATIONAL INC., priority 2018, dated 2024)
Entries after “also recorded” stand apart in the source; their conditions may differ.

How the values were obtained:
[1] = Stability of lipid emulsions upon sterilization in the presence of choline derivatives; assay type: physicochemical; conditions: for Stability of lipid emulsion upon sterilization (Comment): heat sterilization; for stability of the lipid emulsions during sterilization (heat): lipid emulsions prepared as in Example 1
Text: In a first step, raw phases are heated up. […] The receiving vessel is closed and flushed with nitrogen.

[2] = test system: male Sprague-Dawley rats with steatosis, induced by choline and methionine deficient (MCD) diet; assay: Alanine aminotransferase (ALT) activity in plasma, animal study Step #2 (FIG. 1); assay type: in vivo, rat
Description: ALT activity is determined by a modification recommended by the International Federation of Clinical Chemistry (IFCC), see also Example 2. ALT catalyzes the reaction of alpha-ketoglutarate with L-alanine to form L-glutamate and pyruvate. Under the action of LDH, pyruvate converts to lactate, and NADH is converted to NAD. The decrease in absorbance of NADH, measured at 340 nm (secondary wavelength is 700 nm), is directly proportional to the serum activity of ALT. It is a kinetic reaction. In general, serum is used for analysis. The serum is separated from the cells within 2 hours of collection and stored at -70° C. until assayed, Monitoring the ALT activity over time in an animal model is used herein as one straightforward and conclusive way to determine the efficacy of GPC in treating liver disease, specifically liver damage caused by a choline-deficient diet (Examples 1 and 2, FIGS. 1 and 2), Plasma-free choline concentration can be determined by high-pressure liquid chromatography (HPLC) and gas chromatography-mass spectrometry according to protocols known in the art (Pomfret et. al.: Measurement of choline and choline metabolite concentrations using high pressure liquid chromatography and gas chromatography-mass spectrometry. Anal Biochem. 1989; 180: 85-90). The effects of GPC as well as of the combination of DHA, ARA and GPC were investigated in a sick animal model, wherein male Sprague-Dawley rats with steatosis, induced by choline and methionine deficient (MCD) diet (S SNIFF MCD pelleted choline/methionine deficient diet (SSNIFF Spezialdiäten GmbH, Soest, Germany, Product No. E15653-94)) were kept on parenteral nutrition. Steatosis was confirmed in the respective groups by histopathology (Example 3). Parenteral nutrition started after 14 days under MCD diet. First measurements were done after 5 days of parenteral nutrition, followed by measurements after 9 and 17 days. The daily lipid uptake was 2.31 g/kg/d. The rats were split into several groups as set forth below in Table I. Two groups served as control groups, wherein a first group was treated with saline solution (0.90% w/v of NaCl in water for injection). A second group received a lipid emulsion (“LE 10%”) containing refined olive oil (80.0 g/L) and refined soybean oil (20.0 g/L) in water for injection, pH 6-8; LE 10% further contained egg lecithin (6.0 g/L), glycerol (11.25 g/L) and sodium oleate (0.15 g/L). LE 10% contained 100 g/L lipids. […] Pharmaceutical Secondary Standard, was purchased from Sigma-Aldrich (Merck KGaA, Germany). […] As described before, liver damage (cholestasis) may be determined by increased aminotransferase levels. ALT activity was determined with an ADVIA 1800 blood biochemistry analyzer/IFCC modified (Siemens) according to standard protocols such as described before.

[3] = test system: male Sprague-Dawley rats with steatosis, induced by choline and methionine deficient (MCD) diet; assay: Liver histopathology, vacuolation, choline derivatives alone, Step #2 (FIG. 3A); assay type: in vivo, rat; conditions: no DHA and ARA
Text: (§1) The effects of GPC as well as of the combination of DHA, ARA and GPC were investigated in a sick animal model, wherein male Sprague-Dawley rats with steatosis, induced by choline and methionine deficient (MCD) diet (S SNIFF MCD pelleted choline/methionine deficient diet (SSNIFF Spezialdiäten GmbH, Soest, Germany, Product No. E15653-94)) were kept on parenteral nutrition.
(§2) Parenteral nutrition started after 14 days under MCD diet. First measurements were done after 5 days of parenteral nutrition, followed by measurements after 9 and 17 days. The daily lipid uptake was 2.31 g/kg/d. The rats were split into several groups as set forth below in Table I.
(§3) Two groups served as control groups, wherein a first group was treated with saline solution (0.90% w/v of NaCl in water for injection). A second group received a lipid emulsion (“LE 10%”) containing refined olive oil (80.0 g/L) and refined soybean oil (20.0 g/L) in water for injection, pH 6-8; LE 10% further contained egg lecithin (6.0 g/L), glycerol (11.25 g/L) and sodium oleate (0.15 g/L). LE 10% contained 100 g/L lipids.
(§4) Various choline derivatives selected from the group consisting of choline chloride, glycerophosphocholine (GPC) and cytidine diphosphate-choline (CDP-choline) were added in two concentrations (low/high) to LE 10%, respectively, see Table I (Step #2). “Low” refers to a concentration of 15 mmol/L lipid emulsion, “high” refers to a concentration of 31 mmol/L of lipid emulsion. Choline chloride (2-Hydroxyethyl)trimethylammonium chloride). Pharmaceutical Secondary Standard, was purchased from Sigma-Aldrich (Merck KGaA, Germany). CDP-choline (prepared by fermentation) was from TCI Europe N.V. (Antwerp, Belgium). Glycerophosphocholine, prepared from egg phosphatide by saponification, was supplied by Lipoid GmbH, Germany. DHA (from algae, Schizochytrium sp.) and ARA (from fungi, Mortierella alpina) were purchased from BASF AG, Germany, Vitamin E was purchased from ADM (IL, U.S.A.)

[4] = test system: male Sprague-Dawley rats with steatosis, induced by choline and methionine deficient (MCD) diet; assay: Liver weight to body weight ratio (FIG. 4); assay type: in vivo, rat
Text: as §1, §2, §3, §4
The study groups as described in Example 1 were further evaluated with regard to the development of liver weight versus body weight. An increase in liver weight which is not proportional to the increase of body weight is typical for the development of liver damage, specifically steatosis, as described before.

[5] = test system: male Sprague-Dawley rats with steatosis, induced by choline and methionine deficient (MCD) diet; assay: ALT activity in percent of the normal value, animal study Step #3 (FIG. 2); assay type: in vivo, rat
Description: ALT activity is determined by a modification recommended by the International Federation of Clinical Chemistry (IFCC), see also Example 2. ALT catalyzes the reaction of alpha-ketoglutarate with L-alanine to form L-glutamate and pyruvate. Under the action of LDH, pyruvate converts to lactate, and NADH is converted to NAD. The decrease in absorbance of NADH, measured at 340 nm (secondary wavelength is 700 nm), is directly proportional to the serum activity of ALT. It is a kinetic reaction. In general, serum is used for analysis. The serum is separated from the cells within 2 hours of collection and stored at −70° C. until assayed, Monitoring the ALT activity over time in an animal model is used herein as one straightforward and conclusive way to determine the efficacy of GPC in treating liver disease, specifically liver damage caused by a choline-deficient diet (Examples 1 and 2, FIGS. 1 and 2), Plasma-free choline concentration can be determined by high-pressure liquid chromatography (HPLC) and gas chromatography-mass spectrometry according to protocols known in the art (Pomfret et. al.: Measurement of choline and choline metabolite concentrations using high pressure liquid chromatography and gas chromatography-mass spectrometry. Anal Biochem. 1989; 180: 85-90). […] As described before, liver damage (cholestasis) may be determined by increased aminotransferase levels. […]

[6] = plasma, day 5 to day 17 of parenteral nutrition, choline derivative 31 mmol/L (high) in LE 10%
[7] = choline derivative low, 15 mmol/L in LE 10%
[8] = choline derivative high, 31 mmol/L in LE 10%, versus LE 10% alone
[9] = choline derivative high, 31 mmol/L in LE 10%
[10] = phosphatidylcholine as contained in the lipid emulsion(s)

C[N+](C)(C)CCOP(=O)(O)OP(=O)([O-])OC[C@H]1O[C@@H](n2ccc(N)nc2=O)[C@H](O)[C@@H]1O [CDP-choline, cytidine diphosphate-choline]
Stability of lipid emulsion upon sterilization (Comment) ([1]; 30 mmol/L, lipid emulsion tested LE 10 %): Phase separation | stability of the lipid emulsions during sterilization (heat) [1]: destabilize the lipid emulsions during sterilization | development of ALT activity [2, 6]: ALT activity neither significantly increases or decreases | effect on liver vacuolation (histopathological examination) [3, 7]: also had an effect | liver to body weight ratio [4, 8]: reduction of the ratio

C[N+](C)(C)CCOP(=O)([O-])OC[C@@H](O)CO [GPC, (2-{[(2S)-2,3-dihydroxypropylphosphonato]oxy}ethyl)trimethylazanium]
Stability of lipid emulsion upon sterilization (Comment) ([1]; 30 mmol/L, lipid emulsions tested LE 10, 20 %): Stable emulsion | stability of the lipid emulsions during sterilization (heat) [1]: remained stable | development of ALT activity [2, 6]: clear drop in ALT activity; also recorded: most pronounced | ALT activity, change versus normal value ([5]; GPC 40 mmol/L in lipid emulsion, normal (LE 10%) or reduced (LE 13%) phytosterol content): significant decrease of ALT activity | effect on liver vacuolation (histopathological examination) [3, 9]: significantly better | effect on liver vacuolation (histopathological examination) [3, 7]: significantly better | liver to body weight ratio [4, 8]: most pronounced reduction of the ratio

C[N+](C)(C)CCO.[Cl-] [choline chloride, (2-Hydroxyethyl)trimethylammonium chloride]
Stability of lipid emulsion upon sterilization (Comment) ([1]; 15 mmol/L, lipid emulsions tested LE 10, 13, 20 %): Phase separation | stability of the lipid emulsions during sterilization (heat) [1]: destabilize the lipid emulsions during sterilization | development of ALT activity [2, 6]: ALT activity neither significantly increases or decreases | effect on liver vacuolation (histopathological examination) [3, 9]: fared better than those with only saline or lipid emulsion without any choline derivative | effect on liver vacuolation (histopathological examination) [3, 7]: fared better than those with only saline or lipid emulsion without any choline derivative | liver to body weight ratio [4, 8]: reduction of the ratio

phosphatidylcholine
development of ALT activity ([2]; phosphatidylcholine as contained in LE lipid emulsion, 17 days parenteral nutrition): does not seem to have any effect | ALT activity, change versus normal value [5, 10]: does not seem to have any effect | liver to body weight ratio [4, 10]: does not seem to have any effect
